Patent publication US12629406B2, “Alterations in endothelin receptors following hemorrhage and resuscitation by centhaquin” (MIDWESTERN UNIVERSITY, priority 2018, dated 2026)

How the values were obtained:
[1] = cited from earlier work
[2] = test system: isolated, perfused rabbit heart; settings: cited from earlier work
[3] = Phase II study of PMZ-2010 as resuscitative agent for hypovolemic shock (CTRI/2017/03/008184), interim analysis; type: in vivo, human
Text: A prospective, multi-centric, randomized, double-blind, parallel, saline controlled phase II study of PMZ-2010 (centhaquin) as a resuscitative agent for hypovolemic shock due to excessive blood loss (CTRI/2017/03/008184) is being conducted. All subjects received standard treatment for shock (the type of treatment and care the enrolling institution would provide). Patients were randomly assigned to either control cohort (N=7) that received standard treatment along with normal saline or PMZ-2010 cohort (N=12) that received standard treatment along with PMZ-2010.

ETA receptors = assay: ETA receptor expression in tissues of hemorrhaged rats (western blot); type: in vivo, rat; settings: for change in ETA receptor expression, abdominal aorta: compared to hemorrhaged rats with no treatment; for change in ETA receptor expression, renal medulla: compared to hemorrhagic shock
Procedure: (§1) Induction of Hemorrhagic Shock. Hemorrhage was induced by withdrawing blood from the femoral artery at a rate of approximately 0.5 to 1 mL/min until a MAP of 35 mmHg was reached. This MAP was maintained for 30 min by further withdrawal of blood, if necessary. The hemorrhagic shock model used in the present study is a well-established rodent model of manageable pressure hemorrhage (Buehler et al. 2000; Gulati et al. 1997a; Gulati and Sen 1998). The volume of blood loss was about approximately 8.0 ml in each rat and was similar in various groups, amounting to approximately 40% of the total blood. Measured hematocrit levels were similar in various groups. The duration of blood withdrawal was approximately 15 minutes.
(§2) Experimental design. To determine the resuscitative effect of centhaquin on cardiovascular system and plasma cytokines in hemorrhagic shock, rats were randomly divided into five groups, Group 1: Sham control (Non-hemorrhaged) (n=5), Group 2: Hemorrhage with no resuscitation (n=5); Group 3: Hemorrhage followed by resuscitation with 3% hypertonic saline (vehicle) (n=5); Group 4: Hemorrhage followed by resuscitation with vehicle plus centhaquin (0.017 mg/kg) (n=5); and Group 5: Hemorrhage followed by resuscitation with vehicle plus centhaquin (0.05 mg/kg) (n=5). Resuscitation was started 30 min after induction of hemorrhagic shock as an intravenous infusion (1 mL/min) through femoral vein using an infusion pump (Harvard Apparatus Infusion/Withdrawal Pump, Millis, MA). The blood samples, for biochemical estimations, were collected at 30 minutes of resuscitation and cardiovascular parameters were monitored till 60 minutes after which the animal was sacrificed. The volume of resuscitative solution was kept equal to the volume of blood loss.
(§3) Estimation of ETA and ETB receptor expression. Expression of ETA and ETB receptors was determined using the western blotting technique (Briyal et al. 2015; Leonard and Gulati 2013) with some modifications. After completion of cardiovascular experiments animals were sacrificed and the organs (brain, heart, liver, lung, kidney and abdominal aorta) were immediately dissected out, flash frozen on dry ice, and stored at −80° C. for further analysis. The tissue was homogenized with 10×(w/v) RIPA lysis buffer (20 mM Tris-HCl pH 7.5, 120 mM NaCl, 1.0% TritonX-100, 1.0% sodium deoxycholate, 0.1% sodium dodecyl sulfate (SDS), 10% glycerol, 1 mM disodium ethylene diamine tetraacetic acid (EDTA), 1 mM ethylene glycol-bis(β-aminoethyl ether)-N,N,N′,N′-tetraacetic acid tetrasodium salt (EGTA), phosphatase inhibitors and Complete Mini Protease inhibitor cocktail tablet (Roche Diagnostics, Indianapolis, IN). Proteins were isolated in solubilized form and concentrations were measured by Folin-Ciocalteu's phenol reagent (Lowry et al. 1951). Solubilized protein (60 μg) was denatured in Laemmli sample buffer (Bio-Rad Laboratories, Hercules, CA), resolved on 10% sodium dodecyl sulfate-polyacrylamide gel electrophoresis (SDS-PAGE) and then transferred onto the nitrocellulose membrane followed by blocking the membrane with SuperBlock® Blocking Buffer in tris-buffered saline (TBS) (ThermoFisher Scientific, Hanover Park, IL). The membranes were washed three times with 1×TBS-Tween (TBST) and incubated with rabbit polyclonal anti-ETA receptor (ab85163, Abcam, Cambridge, MA, 1:1000) or anti-ETB receptor (ab117529, Abcam, Cambridge, MA, 1:1000) or mouse monoclonal anti-β-actin (a1978, Sigma-Aldrich, St. Louis, MO) antibodies, followed by horseradish peroxidase (HRP)-conjugated secondary antibodies goat anti-rabbit (sc2004, Santa Cruz Biotechnology, Dallas, TX, 1:2000) or goat anti-mouse (ab98693, Abcam, Cambridge, MA, 1:10,000) and visualized by SuperSignal® West Pico Chemiluminescent Substrate (ThermoFisher Scientific, Hanover Park, IL) using the ChemiDoc™ MP Imaging System (Bio-Rad Laboratories, Hercules, CA) and then analyzed using ImageJ (NIH) software.

ETB receptors = assay: ETB receptor expression in tissues of hemorrhaged rats (western blot); type: in vivo, rat; settings: for change in ETB receptor expression, abdominal aorta / change in ETB receptor expression, kidney medulla: compared to untreated hemorrhaged rats
Procedure: as §1, §2, §3

## Cc1cccc(N2CCN(CCc3ccc4ccccc4n3)CC2)c1 [centhaquin, 2-[2-(4-(3-methyphenyl)-1-piperazinyl)]ethyl-quinoline]
[1]; administered in one-fifth the volume of blood loss
  survival of hemorrhaged rats: improved the survival
[1]; rat model of hemorrhagic shock
  blood lactate: decreased blood lactate
  cardiac output (CO): significantly improved CO
  survival: improved survival
[2]
  inotropic effect, ventricular contractions: positive inotropic effect
[3]; 48 hours after resuscitation, control 15.4%
  increase of diastolic blood pressure: 34.9%
[3]; baseline and discharge
  blood urea nitrogen versus control cohort: similar
[3]; baseline to discharge, control 25.35%
  decrease of serum creatinine level: 42.61%
[3]; baseline to discharge, control 40.00%
  increase of glomerular filtration rate: 81.52%
[3]; control 5.09±3.14 days
  time spent on ventilator: 0.85 ± 0.71 days
[3]; control 18.4±12.1 mg
  total amount of vasopressors needed in first 48 hours of resuscitation: 1.3 ± 1.2 mg
[3]; control 47%
  decrease of blood lactate levels: 63%
[3]; control 57.3%
  time in intensive care unit, of the total hospital stay: 39.3%
[3]; first 48 hours, 12 patients
  Total Number of doses administered: 13 doses in 12 patients
[3]; first 48 hours, Mean ± SEM
  Number of doses per patient: 1.08 ± 0.08
[3]; in vivo
  increase in glomerular filtration rate, more compared to standard treatment: 41.52%
  reduction of serum creatinine levels, more compared to standard treatment: 17.26%
  total blood products administered in the first 48 hours, less than control: 23.4%
  total fluids needed in the first 48 hours of resuscitation, less than control: 19.9%
[3]; patients, N=12
  adverse events (primary endpoint of safety): no adverse event was reported
[3]; systolic and diastolic, baseline to discharge (FIG. 9)
  blood pressure increase versus control cohort: more than that observed in control cohort
[3]; until 48 hours after resuscitation, control 34.5%
  increase of systolic blood pressure from baseline: 45.2%
ETA receptors; centhaquin 0.017 mg/kg
  change in ETA receptor expression, abdominal aorta: −47.6%
  change in ETA receptor expression, renal medulla: −61.3%
ETA receptors; centhaquin 0.05 mg/kg
  change in ETA receptor expression, abdominal aorta: −49.2%
  change in ETA receptor expression, renal medulla: −70.5%
ETA receptors; dose not given
  change in ETA expression, renal medulla (summary): −61%
ETA receptors; hemorrhage and resuscitation
  ETA receptor expression in brain, heart, liver, lungs and kidney cortex: no change
ETA receptors; summary, also attenuated by saline
  shock-induced increase (140%) in ETA expression, abdominal aorta: attenuated
ETB receptors; centhaquin 0.017 mg/kg
  change in ETB receptor expression, abdominal aorta: 79.7%
  change in ETB receptor expression, kidney medulla: 76.6%
ETB receptors; centhaquin 0.05 mg/kg
  change in ETB receptor expression, abdominal aorta: 57.4%
  change in ETB receptor expression, kidney medulla: 69.4%
ETB receptors; dose not given
  change in ETB expression, abdominal aorta (summary): 79%
ETB receptors; hemorrhage and resuscitation
  ETB receptor expression in brain, heart, liver, lungs and kidney cortex: no change
ETB receptors; summary, not attenuated by saline
  shock-induced decrease (−34%) in ETB expression, renal medulla: completely attenuated
